Measurements: the OPERA property sets (Mansouri et al. 2018)

Settings: not given

In order of falling melting point:
1. O=C(Nc1cccc2ccccc12)Nc1cccc2ccccc12  296 °C
2. Nc1ccc(O)c(C(=O)O)c1  283 °C
3. O=C(O)c1cc(C(=O)O)c(C(=O)O)cc1C(=O)O  276 °C
4. COC1=CC(=O)C=C(OC)C1=O  256 °C
5. OC1[C@@H](O)[C@H](O)C[C@@H](O)[C@@H]1O (some centres undefined)  236 °C
6. CC1OC(=O)C=C2C3=C(OC(C)(C)CC3)C(=O)C(O)=C21 (centres undefined)  230 °C
7. Nc1ncn([C@@H]2O[C@H](CO)[C@@H](O)[C@H]2O)c(=O)n1  229 °C
8. COc1cc(Cc2cnc(N)nc2N)cc(OC)c1Br  226 °C
9. C#C[C@]1(O)CC[C@H]2[C@@H]3CCC4=CC(=O)CC[C@@H]4[C@H]3CC[C@@]21CC  223 °C
10. COC1=CC(=O)C[C@@H](C)[C@]12Oc1c(Cl)c(OC)cc(OC)c1C2=O  220 °C
11. CC(=O)Oc1cccc2c1C(=O)c1c(OC(C)=O)cc(C(=O)O)cc1C2=O  218 °C
12. C[C@@]12C(=O)OC(=O)[C@]1(C)C1CCC2O1  218 °C
13. O=C(O)c1cc([N+](=O)[O-])cc([N+](=O)[O-])c1  205 °C
14. C[C@]12CC[C@@H]3c4ccc(O)cc4CC[C@H]3[C@@H]1CC[C@@H]2O  200 °C
15. O=C(O)c1cc(O)ccc1O  200 °C
16. O=C(O)c1cc(Cl)c(Cl)c(Cl)c1Cl  194 °C
17. c1ccc2cc(-c3ccc4ccccc4c3)ccc2c1  188 °C
18. O=C(O)CCC(=O)O  188 °C
19. CNC(C)Cc1ccc(O)cc1 (centres undefined)  161 °C
20. CC1=CC(=O)CC(C)(C)[C@@]1(O)/C=C/C(C)=C\C(=O)O  160 °C
21. O=C1CCc2cc(OCCCCc3nnnn3C3CCCCC3)ccc2N1  160 °C
22. O=C1C=CC2(CCC23C=CC(=O)O3)O1 (centres undefined)  158 °C
23. c1ccc(-c2ncc[nH]2)cc1  149 °C
24. O=C(c1ccc(Cl)cc1)c1ccc(Cl)cc1  148 °C
25. CCOC(=O)/C=C1/SC(N2CCCCC2)C(=O)N1C (centres undefined)  140 °C
26. S=C(SSC(=S)N1CCCCC1)N1CCCCC1  138 °C
27. CCOC(=O)NNC(=O)OCC  135 °C
28. O=C(O)Cc1ccc(O)c(O)c1  128 °C
29. O=C1c2ccccc2C(=O)C1c1ccc(F)cc1  120 °C
30. O=C(O)CCC(=O)C(=O)O  116 °C
31. N#Cc1ccc(O)cc1  112 °C
32. Cc1c(C(C)C)c(=O)n(-c2ccccc2)n1C  103 °C
33. CC(=O)n1ccnc1  102 °C
34. Nc1ccc2ccccc2c1N  98.5 °C
35. COC(=O)C1(S(=O)(=O)c2ccc(C)cc2)CC1  97.2 °C
36. CC(C)CC[N+](=O)[O-]  97 °C
37. CC(=O)Nc1ccccc1[N+](=O)[O-]  94 °C
38. CN1CCC2=C(C1)C(c1ccccc1)c1ccccc12 (centres undefined)  91 °C
39. Cc1ccc(/N=C/N(C)/C=N/c2ccc(C)cc2C)c(C)c1  86 °C
40. c1ccc(Cc2ccc(-c3ccccc3)cc2)cc1  85 °C
41. CCCCCCCCCCCCCCCCCCCCCCCC(=O)O  84.2 °C
42. Cc1cc(N)ccc1Br  81 °C
43. O=C(c1ccccc1)c1ccc(Cl)cc1  77.5 °C
44. COc1cc(CCCO)ccc1O  65 °C
45. CC(C)COC(=O)c1ccc(N)cc1  64.5 °C
46. CCCC(C)(CO)CO  62.5 °C
47. CNC(=S)NC  62 °C
48. c1ccc(-c2ccncc2)nc1  61.5 °C
49. O=C=Nc1ccc([N+](=O)[O-])cc1  57 °C
50. CNC(=O)ON=C(CSC)C(C)(C)C  57 °C
51. CCCCCCCCCCCCCCCCCCN  52.9 °C
52. COc1cc(Cl)ccc1N  52 °C
53. O=C(O)CCCc1ccccc1  52 °C
54. C=C1C2CCC(C2)C1(C)C (centres undefined)  51.6 °C
55. O=C(O)C(Cl)CCl (centres undefined)  50 °C
56. CN=C=S  36 °C
57. Cc1ccc(CBr)cc1  35 °C
58. COS(=O)(=O)c1ccc(C)cc1  28.5 °C
59. CCOC(=O)c1cccc(Cl)c1O  21 °C
60. c1ccc(CC2CCNCC2)cc1  16.8 °C
61. Cc1cnc(C)cn1  15 °C
62. O=c1cccco1  8.5 °C
63. C=C(c1ccccc1)c1ccccc1  8.2 °C
64. CCCCCOC(=O)CCC(=O)OCCCCC  -10.8 °C
65. CCCCCCOc1ccccc1  -19 °C
66. Fc1ccc(I)cc1  -27 °C
67. CCCCCCCCC#N  -34.2 °C
68. CCCCCCC1CCCCC1  -43 °C
69. CC1CCc2ccccc2C1 (centres undefined)  -43.1 °C
70. COc1ccc(F)cc1  -45 °C
71. Clc1ccccn1  -46.5 °C
72. CC(C)(C)OCC1CO1 (centres undefined)  -70 °C
73. C[Si](C)(C)O[Si](C)(C)O[Si](C)(C)C  -80 °C
74. CCCCc1ccccc1  -87.9 °C
75. C=CC#CC=C  -88 °C
76. C=CCN  -88.2 °C
77. CCB(CC)CC  -93 °C
78. C[Si](C)(C)C  -99 °C
79. CCCCCl  -123 °C
80. C=CC(=C)Cl  -130 °C
81. C=C=CC  -136 °C

In order of rising boiling point:
1. C=C(C)F  -24 °C
2. C=C=CC  10.9 °C
3. C[Si](C)(C)C  26.6 °C
4. C=CCN  53.3 °C
5. C=CC(=C)Cl  59.4 °C
6. CCCCCl  78.6 °C
7. C=CC#CC=C  85 °C
8. CCB(CC)CC  95 °C
9. CO[Si](C)(OC)OC  102 °C
10. CCOCCCl  108 °C
11. C1=CSCC1  112 °C
12. C=CCC(C)CCC (centres undefined)  113 °C
13. CN=C=S  119 °C
14. CN1CCCC(CO)C1 (centres undefined)  142 °C
15. CC(C)CCO[N+](=O)[O-]  146 °C
16. CCCC(C)CC(C)(C)C (centres undefined)  148 °C
17. CCCC(C)(C)CC(C)C  151 °C
18. CC(C)(C)OCC1CO1 (centres undefined)  152 °C
19. C[Si](C)(C)O[Si](C)(C)O[Si](C)(C)C  153 °C
20. Cc1cnc(C)cn1  155 °C
21. COc1ccc(F)cc1  157 °C
22. C=C1C2CCC(C2)C1(C)C (centres undefined)  160 °C
23. OC(c1ccccc1)(C(F)(F)F)C(F)(F)F  160 °C
24. CC(C)CC[N+](=O)[O-]  164 °C
25. Clc1ccccn1  170 °C
26. ClCCC[Si](Cl)(Cl)Cl  182 °C
27. CCCCc1ccccc1  183 °C
28. Fc1ccc(I)cc1  183 °C
29. CCOc1ccc(C)cc1  188 °C
30. CCCCC(O)CCCC  193 °C
31. C1CCC2(CC1)CCCCC2  207 °C
32. O=c1cccco1  208 °C
33. CCN(CC)C(=O)N(CC)CC  209 °C
34. O=C(O)C(Cl)CCl (centres undefined)  210 °C
35. Cc1ccc(CBr)cc1  220 °C
36. CC1CCc2ccccc2C1 (centres undefined)  221 °C
37. CCCCCCCCC#N  224 °C
38. CCCCCCC1CCCCC1  224 °C
39. CC(C)CC(C)CC(O)CC(C)C (centres undefined)  225 °C
40. CCOC(=O)c1ccccc1C  227 °C
41. CCCC(C)(CO)CO  234 °C
42. Cc1cc(N)ccc1Br  240 °C
43. CCCCCCOc1ccccc1  240 °C
44. CCOC(=O)c1cccc(Cl)c1  243 °C
45. CC(=O)Oc1cc(C(C)C)ccc1C  246 °C
46. Clc1ccc(C(Cl)Cl)cc1Cl  257 °C
47. COc1cc(Cl)ccc1N  260 °C
48. CCOC(=O)c1cccc(Cl)c1O  270 °C
49. c1ccc(CC2CCNCC2)cc1  270 °C
50. C=C(c1ccccc1)c1ccccc1  277 °C
51. c1ccc(-c2ccncc2)nc1  281 °C
52. O=C(O)CCCc1ccccc1  290 °C
53. COS(=O)(=O)c1ccc(C)cc1  292 °C
54. O=C(c1ccccc1)c1ccc(Cl)cc1  332 °C
55. c1ccc(-c2ncc[nH]2)cc1  340 °C
56. CCCCCCCCCCCCCCCCCCN  347 °C
57. O=C(c1ccc(Cl)cc1)c1ccc(Cl)cc1  353 °C
58. c1ccc2cc(-c3ccc4ccccc4c3)ccc2c1  452 °C

In order of rising log10 vapour pressure (mmHg):
1. O=C(Nc1ccccc1)Nc1cnns1  -10.6
2. O=C(O)CCC(=O)O  -6.72
3. NC(=S)C(N)=S  -5.78
4. Cc1ccc(/N=C/N(C)/C=N/c2ccc(C)cc2C)c(C)c1  -5.7
5. CCOP(=O)(N=C1SCS1)OCC  -5.19
6. CNC(=O)ON=C(CSC)C(C)(C)C  -3.77
7. C=C(c1ccccc1)c1ccccc1  -1.88
8. CCCCCCC1CCCCC1  -0.943
9. CCCCc1ccccc1  0.027
10. Clc1ccccn1  0.338
11. C=C1C2CCC(C2)C1(C)C (centres undefined)  0.399
12. C[Si](C)(C)O[Si](C)(C)O[Si](C)(C)C  0.524
13. CN=C=S  0.549
14. CC(C)CCO[N+](=O)[O-]  0.71
15. CCCCCl  2.01
16. C=CC(=C)Cl  2.33
17. C=CCN  2.38
18. C[Si](C)(C)C  2.86
19. C=C=CC  3.1

With CCCCCCCCC#N the ready biodegradability was “readily biodegradable”.
For CCCCc1ccccc1, the ready biodegradability was “not readily biodegradable”.
In the case of C=C1C2CCC(C2)C1(C)C (centres undefined), the ready biodegradability is reported as “not readily biodegradable”.
With CN=C=S the ready biodegradability was “not readily biodegradable”.
With CCCCCl the ready biodegradability was “not readily biodegradable”.
For O=C(O)CCC(=O)O, the ready biodegradability was “readily biodegradable”.
For N#Cc1ccc(O)cc1, the ready biodegradability was “not readily biodegradable”.
In the case of O=C(O)c1cc([N+](=O)[O-])cc([N+](=O)[O-])c1, the ready biodegradability is reported as “not readily biodegradable”.
In the case of Clc1ccccn1, the ready biodegradability is reported as “not readily biodegradable”.
In the case of CCOC(=O)C(C)(C)Oc1ccc(Cl)cc1, the ready biodegradability is reported as “readily biodegradable”.

In order of falling log10 Koc (L/kg):
1. CCCCc1ccccc1  3.39
2. Cc1ccc(/N=C/N(C)/C=N/c2ccc(C)cc2C)c(C)c1  3
3. Cc1cc(N)ccc1Br  2.26
4. O=C(Nc1ccccc1)Nc1cnns1  2.04
5. NC(=O)Nc1ccccc1Cl  1.61
6. O=C(O)c1cc([N+](=O)[O-])cc([N+](=O)[O-])c1  1.53
7. CN=C=S  0.97

In order of rising log10 Henry constant (atm·m³/mol):
1. Cc1ccc(/N=C/N(C)/C=N/c2ccc(C)cc2C)c(C)c1  -5.01
2. COc1nccnc1CC(C)C  -4.31
3. CC(C)CCO[N+](=O)[O-]  -2.59
4. CCCCCl  -1.78
5. C[Si](C)(C)O[Si](C)(C)O[Si](C)(C)C  1.49

For CCCCCl, the log10 Koa was 2.72.

Same assay, conditions: fish

In order of rising log10 biotransformation half-life (days):
1. Clc1ccccn1  -0.85
2. CCCCCl  -0.45
3. CCCCCCC1CCCCC1  0.7
4. C=C1C2CCC(C2)C1(C)C (centres undefined)  0.96

In order of falling log10 BCF:
1. C=C1C2CCC(C2)C1(C)C (centres undefined)  2.98
2. Clc1ccccn1  1.28
3. CCCCCl  1.23
4. N#Cc1ccc(O)cc1  0.91
